Converted amounts (≈) assume the structure as drawn. Structures can show the parent of a compound that is named as a salt. Where two headings read alike, the source gives them in different places.
How the values were obtained:
S. pneumoniae 28 = test: In vitro antibacterial activity, MIC (clinical isolates); format: cell-based; conditions: Streptococcus pneumoniae, 10^6 cells/ml, clinical isolate
[1] = Absorption and distribution: concentration in blood and organs after oral administration, bioassay by cup method; format: in vivo; conditions: rat, rats, fasted, 10 mg/kg oral, Mean ± S.D. (n=5); for concentration at 0.5 h: 1/2 hr after administration; for concentration at 1 h: 1 hr after administration; for concentration at 2 h: 2 hr after administration; for concentration at 4 h: 4 hr after administration; for concentration at 6 h: 6 hr after administration; for concentration at 8 h: 8 hr after administration
[2] = Urinary and bile excretion after oral administration, bioassay by cup method; format: in vivo; conditions: rat, fasted rats, 10 mg/kg oral, Mean ± S.D. (n=5)
S. pneumoniae S-4288 = test: In vivo antibacterial activity against systemic infection in mice; set-up: species or system mice (ICR-S); conditions: Streptococcus pneumoniae, S4288; mice (ICR-S); oral, an hour after intraperitoneal infection; challenge dose 7.5 x 10^4 ~ 4.8 x 10^6 cfu/mouse; read-out: ED50 S. pneumoniae S-4288
Protocol: Experiment-2 In vivo antibacterial activity against systemic infection in mice (ICR-S)
The infections were produced by intraperitoneal injection of a suspension of the bacterial culture corresponding to the germ studied. The products were administered orally at an hour after the infection.

[3] = kidney, read-out: Concentration in organs: Kidney
[4] = liver, read-out: Concentration in organs: Liver
[5] = lung, read-out: Concentration in organs: Lung
[6] = serum, read-out: Concentration in organs: Serum
[7] = bile 0 ~ 3 hr, read-out: Concentration, bile
[8] = bile 0 ~ 3 hr, read-out: Recovery, bile
[9] = bile 0 ~ 6 hr, read-out: Recovery, bile
[10] = bile 0 ~ 24 hr, read-out: Recovery, bile
[11] = bile 3 ~ 6 hr, read-out: Concentration, bile
[12] = bile 6 ~ 24 hr, read-out: Concentration, bile
[13] = urine 0 ~ 3 hr, read-out: Concentration, urine
[14] = urine 0 ~ 3 hr, read-out: Recovery, urine
[15] = urine 0 ~ 6 hr, read-out: Recovery, urine
[16] = urine 0 ~ 24 hr, read-out: Recovery, urine
[17] = urine 3 ~ 6 hr, read-out: Concentration, urine
[18] = urine 6 ~ 24 hr, read-out: Concentration, urine

For NCC1CCN(c2c(F)cc3c(=O)c(C(=O)O)cn(C4CC4)c3c2F)C1 (stereo not drawn) [Example 1, 7-(3-Aminomethyl-l-pyrrolidinyl)-l-cyclopropyl-6,8-difluoro-1,4-dihydro-4-oxo-3-quinolinecarboxylic acid hydrochloride], which MIC (S. pneumoniae 28) is on record?
The MIC was 0.05 µg/mL.

Which concentration at 0.5 h [1, 3] does the source give for CCNCC1CCN(c2c(F)cc3c(=O)c(C(=O)O)cn(C4CC4)c3c2F)C1 (stereo not drawn) [Example 2, l-Cyclopropyl-7-(3-ethylaminomethyl-l-pyrrolidinyl)-6,8-difluoro-l,4-dihydro-4-oxo-3-quinolinecarboxylic acid hydrochloride] here?
The concentration at 0.5 h was 8500 ± 310 ng/g.

What about the concentration at 1 h [1, 3] of the same molecule?
Its concentration at 1 h is 6720 ± 540 ng/g.

And the concentration at 2 h [1, 3]?
Its concentration at 2 h is 4660 ± 300 ng/g.

What about the concentration at 4 h [1, 3] of the same molecule?
The concentration at 4 h was 2620 ± 590 ng/g.

What about the concentration at 6 h [1, 3] of the same molecule?
Its concentration at 6 h is 1860 ± 110 ng/g.

What about the concentration at 8 h [1, 3] of the same molecule?
The concentration at 8 h was 980 ± 220 ng/g.

What about the concentration at 0.5 h [1, 4] of the same molecule?
Its concentration at 0.5 h is 9480 ± 440 ng/g.

And the concentration at 1 h [1, 4]?
Its concentration at 1 h is 6240 ± 530 ng/g.

What about the concentration at 2 h [1, 4] of the same molecule?
Its concentration at 2 h is 4320 ± 430 ng/g.

And the concentration at 4 h [1, 4]?
The concentration at 4 h was 2360 ± 480 ng/g.

And the concentration at 6 h [1, 4]?
Its concentration at 6 h is 1620 ± 290 ng/g.

What about the concentration at 8 h [1, 4] of the same molecule?
Its concentration at 8 h is 820 ± 190 ng/g.

What about the concentration at 0.5 h [1, 5] of the same molecule?
Its concentration at 0.5 h is 3840 ± 420 ng/g.

And the concentration at 1 h [1, 5]?
Its concentration at 1 h is 2940 ± 220 ng/g.

What about the concentration at 2 h [1, 5] of the same molecule?
The concentration at 2 h was 1920 ± 330 ng/g.

What about the concentration at 4 h [1, 5] of the same molecule?
The concentration at 4 h was 1120 ± 310 ng/g.

And the concentration at 6 h [1, 5]?
Its concentration at 6 h is 780 ± 190 ng/g.

What about the concentration at 8 h [1, 5] of the same molecule?
Its concentration at 8 h is 380 ± 80 ng/g.

And the concentration at 0.5 h [1, 6]?
The concentration at 0.5 h was 1470 ± 190 ng/mL.

What about the concentration at 1 h [1, 6] of the same molecule?
Its concentration at 1 h is 1300 ± 200 ng/mL.

What about the concentration at 2 h [1, 6] of the same molecule?
Its concentration at 2 h is 900 ± 190 ng/mL.

And the concentration at 4 h [1, 6]?
Its concentration at 4 h is 420 ± 150 ng/mL.

What about the concentration at 6 h [1, 6] of the same molecule?
The concentration at 6 h was 260 ± 90 ng/mL.

What about the concentration at 8 h [1, 6] of the same molecule?
The concentration at 8 h was 120 ± 40 ng/mL.

What about the MIC (S. pneumoniae 28) of the same molecule?
Its MIC is 0.05 µg/mL.

What about the concentration at 3 h [2, 7] of the same molecule?
Its concentration at 3 h is 17100 ± 10000 ng/mL.

What about the dose excreted at 3 h [2, 8] of the same molecule?
Its dose excreted at 3 h is 2.4 ± 1.6%.

What about the dose excreted at 6 h [2, 9] of the same molecule?
Its dose excreted at 6 h is 4.3 ± 2.1%.

What about the dose excreted at 24 h [2, 10] of the same molecule?
The dose excreted at 24 h was 9.7 ± 3.1%.

And the concentration at 6 h [2, 11]?
The concentration at 6 h was 16100 ± 6200 ng/mL.

What about the concentration at 24 h [2, 12] of the same molecule?
Its concentration at 24 h is 10100 ± 2300 ng/mL.

And the concentration at 3 h [2, 13]?
The concentration at 3 h was 44200 ± 27900 ng/mL.

What about the dose excreted at 3 h [2, 14] of the same molecule?
Its dose excreted at 3 h is 3.5 ± 2%.

What about the dose excreted at 6 h [2, 15] of the same molecule?
The dose excreted at 6 h was 6.7 ± 4.3%.

And the dose excreted at 24 h [2, 16]?
Its dose excreted at 24 h is 13.5 ± 4.6%.

And the concentration at 6 h [2, 17]?
The concentration at 6 h was 115000 ± 61000 ng/mL.

And the concentration at 24 h [2, 18]?
Its concentration at 24 h is 22100 ± 9800 ng/mL.

And the ED50 (S. pneumoniae S-4288)?
Its ED50 is 4.6 mg/kg.

With CNCC1CCN(c2c(F)cc3c(=O)c(C(=O)O)cn(C4CC4)c3c2F)C1 (stereo not drawn) [Example 8, 1-Cyclopropyl-6,8-difluoro-1,4-dihydro-7-(3-methylaminomethyl-l-pyrrolidinyl)-4-oxo-3-quinolinecarboxylic acid hydrochloride] as the molecule, how does the MIC (S. pneumoniae 28) read?
The MIC was 0.05 µg/mL.

What about the ED50 (S. pneumoniae S-4288) of the same molecule?
Its ED50 is 16.1 mg/kg.

With CNCC1CCN(c2c(F)cc3c(=O)c(C(=O)O)cn(C4CC4)c3c2Cl)C1 (stereo not drawn) [Example 12, 8-Chloro-l-cyclopropyl-6-fluoro-1,4-dihydro-7-(3-methylaminomethyl-1-pyrrolidinyl)-4-oxo-3-quinolinecarboxylic acid hydrochloride] as the molecule, how does the MIC (S. pneumoniae 28) read?
The MIC was 0.05 µg/mL.

And the ED50 (S. pneumoniae S-4288)?
The ED50 was 6.5 mg/kg.

With CCNCC1CCN(c2c(F)cc3c(=O)c(C(=O)O)cn(C4CC4)c3c2Cl)C1 (stereo not drawn) [Example 13, 8-Chloro-l-cyclorpropyl-6-fluoro-1,4-dihydro-7-(3-ethylaminomethyl-l-pyrrolidinyl)-4-oxo-3-quinolinecarboxylic acid] as the molecule, how does the concentration at 0.5 h [1, 3] read?
Its concentration at 0.5 h is 5630 ± 640 ng/g.

What about the concentration at 1 h [1, 3] of the same molecule?
The concentration at 1 h was 4700 ± 600 ng/g.

What about the concentration at 2 h [1, 3] of the same molecule?
Its concentration at 2 h is 2810 ± 250 ng/g.

What about the concentration at 4 h [1, 3] of the same molecule?
The concentration at 4 h was 1470 ± 250 ng/g.

And the concentration at 6 h [1, 3]?
Its concentration at 6 h is 840 ± 90 ng/g.

What about the concentration at 8 h [1, 3] of the same molecule?
The concentration at 8 h was 890 ± 400 ng/g.

What about the concentration at 0.5 h [1, 4] of the same molecule?
Its concentration at 0.5 h is 7780 ± 910 ng/g.

And the concentration at 1 h [1, 4]?
The concentration at 1 h was 5710 ± 630 ng/g.

And the concentration at 2 h [1, 4]?
Its concentration at 2 h is 3140 ± 360 ng/g.

What about the concentration at 4 h [1, 4] of the same molecule?
Its concentration at 4 h is 1340 ± 120 ng/g.

And the concentration at 6 h [1, 4]?
Its concentration at 6 h is 860 ± 150 ng/g.

What about the concentration at 8 h [1, 4] of the same molecule?
Its concentration at 8 h is 1130 ± 520 ng/g.

And the concentration at 0.5 h [1, 5]?
Its concentration at 0.5 h is 3170 ± 710 ng/g.

And the concentration at 1 h [1, 5]?
Its concentration at 1 h is 2660 ± 420 ng/g.

What about the concentration at 2 h [1, 5] of the same molecule?
Its concentration at 2 h is 1540 ± 210 ng/g.

And the concentration at 4 h [1, 5]?
The concentration at 4 h was 700 ± 80 ng/g.

And the concentration at 6 h [1, 5]?
Its concentration at 6 h is 420 ± 50 ng/g.

And the concentration at 8 h [1, 5]?
Its concentration at 8 h is 450 ± 150 ng/g.

What about the concentration at 0.5 h [1, 6] of the same molecule?
The concentration at 0.5 h was 1720 ± 370 ng/mL.

And the concentration at 1 h [1, 6]?
Its concentration at 1 h is 1120 ± 300 ng/mL.

And the concentration at 2 h [1, 6]?
Its concentration at 2 h is 570 ± 80 ng/mL.

What about the concentration at 4 h [1, 6] of the same molecule?
Its concentration at 4 h is 230 ± 40 ng/mL.

What about the concentration at 6 h [1, 6] of the same molecule?
The concentration at 6 h was 100 ± 10 ng/mL.

And the concentration at 8 h [1, 6]?
Its concentration at 8 h is 140 ± 80 ng/mL.

And the MIC (S. pneumoniae 28)?
The MIC was 0.05 µg/mL (≈ 0.123 µM).

What about the concentration at 3 h [2, 7] of the same molecule?
Its concentration at 3 h is 36400 ± 9900 ng/mL.

What about the dose excreted at 3 h [2, 8] of the same molecule?
Its dose excreted at 3 h is 4.9 ± 1.5%.

What about the dose excreted at 6 h [2, 9] of the same molecule?
Its dose excreted at 6 h is 6.9 ± 1.4%.

And the dose excreted at 24 h [2, 10]?
The dose excreted at 24 h was 12.9 ± 4.9%.

And the concentration at 6 h [2, 11]?
The concentration at 6 h was 19700 ± 8000 ng/mL.

And the concentration at 24 h [2, 12]?
Its concentration at 24 h is 11300 ± 8300 ng/mL.

What about the concentration at 3 h [2, 13] of the same molecule?
The concentration at 3 h was 36100 ± 9200 ng/mL.

What about the dose excreted at 3 h [2, 14] of the same molecule?
The dose excreted at 3 h was 2.7 ± 2.1%.

And the dose excreted at 6 h [2, 15]?
Its dose excreted at 6 h is 4.8 ± 1.8%.

What about the dose excreted at 24 h [2, 16] of the same molecule?
Its dose excreted at 24 h is 7.4 ± 1.5%.

And the concentration at 6 h [2, 17]?
Its concentration at 6 h is 39400 ± 13300 ng/mL.

What about the concentration at 24 h [2, 18] of the same molecule?
Its concentration at 24 h is 7600 ± 3600 ng/mL.

What about the ED50 (S. pneumoniae S-4288) of the same molecule?
The ED50 was 2 mg/kg.

Which results are given for NCC1CCN(c2c(F)cc3c(=O)c(C(=O)O)cn(C4CC4)c3c2Cl)C1 (stereo not drawn) [Example 14, 8-Chloro-l-cyclopropyl-6-fluoro-l,4-dihydro-7-(3-aminomethyl-l-pyrrolidinyl)-4-oxo-3-quinolinecarboxylic acid hydrochloride]?
MIC (S. pneumoniae 28): 0.05 µg/mL; ED50 (S. pneumoniae S-4288): 10 mg/kg

For CCn1cc(C(=O)O)c(=O)c2cc(F)c(N3CCNCC3)cc21 [NFLX, Norfloxacin, reference compound], which MIC (S. pneumoniae 28) is on record?
The MIC was 6.25 µg/mL (≈ 19.6 µM).

Which ED50 (S. pneumoniae S-4288) does the source give for CCNCC1CCN(c2c(F)cc3c(=O)c(C(=O)O)cn(CC)c3c2F)C1 (stereo not shown) [Ref.1, 1-Ethyl-7-(3-ethylaminomethyl-1-pyrrolidinyl)-6,8-difluoro-1,4-dihydro-4-oxo-3-quinolinecarboxylic acid, reference compound] here?
Its ED50 is 62.2 mg/kg.
